Article PMC10285648, “iTAG an optimized IMiD-induced degron for targeted protein degradation in human and murine cells” (iScience, 2023)

Columns and labels:
[1] = test system: Flag-HA-DCD23-RBM39, Flag-HA-DCD23-SMS; experiment: Quantitative TMT proteomics of CT26 expressing iTAG-tagged RBM39 or SMS; type: cell-based, mouse; conditions: CT26, 10uM, 8h
Experimental: (§1) The protein lysates were probed for EGFP using western blotting. […] EGFP signal was then measured using flow cytometry. (3 independent experiments, normalized to the control and represented as mean ± SD). […] Data are plotted as Log2 fold change relative to DMSO versus Log10 of p value.
We then tested the degradation of RBM39 (nuclear) and SMS (cytoplasmic) N-terminally tagged with iTAG (DCD23) in CT26 and AT3 ([…]) (Figures 5C–5E).
Samples for quantitative proteomics were prepared using the SimPLIT workflow.[60] […] Samples were bath sonicated for 5 min, incubated at RT for 45 min and protein concentration was measured with the Bradford Protein Assay (Biorad) according to manufacturer instructions. […]
LC-MS analysis was performed on the Dionex Ultimate 3000 UHPLC system coupled with the Orbitrap Lumos mass spectrometer (Thermo Scientific). Samples were analyzed with the EASY-Spray C18 capillary column (75 μm × 50 cm, 2 μm) at 50°C. […] MS3 quantification was obtained with higher-energy collisional dissociation (HCD) fragmentation of the top 5 most abundant CID fragments isolated with synchronous precursor selection (SPS). […]
The SEQUEST-HT search engine was used to analyze the acquired mass spectra in Proteome Discoverer 2.4 (Thermo Scientific) for protein identification and quantification. […]

Flag-HA-DCD19-EGFP = experiment: Degradation of Flag-HA-DCD19-EGFP in murine cells; type: cell-based, mouse; conditions: 2208L and PyMT, 24 h, western blotting
Experimental: Given the high degradation efficiency of DCD23 in human cells, we sought to test the applicability of this system in murine cells.
as §1

[2] = test system: N and C-terminally tagged KRAS^[G12V] and EZH2 (DCD23); experiment: Flow cytometry of EGFP signal, DCD23-tagged KRAS G12V and EZH2 in HMEC; type: cell-based, human; conditions: 10uM, 4h
Excerpt: We tagged the proteins with DCD23 constructs, fused either to their N-terminus or C-terminus (Figures 2A and 2B). We stably transduced HMEC cells with these constructs and assessed their degradation. Cellular treatment with all degraders led to a decrease in the EGFP signal of the N and C-terminally tagged KRAS^[G12V] and EZH2 (Figures 2A and 2B).
Figure 2 Degradation of cytoplasmic and nuclear targets using iTAG (A) HMEC cells expressing N-terminally tagged DCD23-EGFP-KRAS^[G12V], DCD23-EGFP-EZH2, DCD23-EGFP-cMYC or their corresponding P2A control were induced with doxycycline for 24h then treated with either DMSO or the different indicated drugs at a concentration of 10uM for 4h. Median EGFP intensity was measured in each condition using flow cytometry and normalized values were represent in the Log2 Fold change relative to the DMSO control. […] Median EGFP intensity was measured in each condition using flow cytometry and normalized values were represent in the Log2 Fold Change relative to the DMSO control. […]
Cells stably transduced with the iTAG tagged constructs were treated with 1 μg/mL of doxycycline for 24h to induce constructs expression. […] EGFP signal was measured using BD LSR II flow cytometer (BD Biosciences). […]

[3] = test system: HMEC, HEK293T, MDA-MB-231, Kelly cells; experiment: Cell viability assay (CellTiter-Blue); type: cell-based, human; conditions: 5 days treatment
Experimental: By endpoint, CellTiter-Blue reagent (Promega) was added to each well, incubated for 3 h at 37°C and absorbance was measured with a plate reader at 570nm. Average background absorbance value was subtracted from all readings when plotting the viability curve.

O=C1CC[C@H](N2Cc3c(OCc4ccc(CN5CCOCC5)cc4)cccc3C2=O)C(=O)N1 [CC220, Iberdomide]
degradation of iTAG (DCD23) tagged RBM39 and SMS [1]: robust degradation
off-targets in proteome [1]: without any detected off-targets
degradation of DCD19 tagged EGFP (Flag-HA-DCD19-EGFP): not degraded
change of EGFP signal [2]: most active degrader
cellular toxicity [3]: did not induce cellular toxicity
